Measured values from PubChem BioAssay AID248 (DTP/NCI, 2004).
Where “and” joins values, the source holds several entries; their conditions need not be identical. Equal entries are not always repeated. Inconclusive results and toxic doses are left out. Rule as the data show it: active = T/C of 150% or more; inactive = T/C below 125%.

Tested on: L1210 leukemia ip in BDF1 mice, survival T/C
Assay: NCI In Vivo Anticancer Drug Screen. Data for tumor model L1210 Leukemia (intraperitoneal) in B6D2F1 (BDF1) mice
Conditions: endpoint: mean survival time, higher = longer survival
Outline: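 Ratio derived from survival: compound-dosed mice over vehicle-dosed mice, all bearing a transplantable tumor.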

[1] = dose: 100.0 mg/kg/injection, schedule: Q04DX002 (ip), vehicle: saline with Tween-80
[2] = dose: 200.0 mg/kg/injection, schedule: Q04DX002 (ip), vehicle: saline with Tween-80
[3] = dose: 400.0 mg/kg/injection, schedule: Q04DX002 (ip), vehicle: saline with Tween-80
[4] = dose: 100.0 mg/kg/injection, schedule: Q01DX001 (ip), vehicle: carboxymethylcellulose (CMC)
[5] = dose: 200.0 mg/kg/injection, schedule: Q01DX001 (ip), vehicle: carboxymethylcellulose (CMC)
[6] = dose: 400.0 mg/kg/injection, schedule: Q01DX001 (ip), vehicle: carboxymethylcellulose (CMC)
[7] = dose: 100.0 mg/kg/injection, schedule: Q01DX009 (ip), vehicle: saline with Tween-80
[8] = dose: 200.0 mg/kg/injection, schedule: Q01DX009 (ip), vehicle: saline with Tween-80
[9] = dose: 25.0 mg/kg/injection, schedule: Q04DX002 (ip), vehicle: saline with Tween-80
[10] = dose: 50.0 mg/kg/injection, schedule: Q04DX002 (ip), vehicle: saline with Tween-80
[11] = dose: 100.0 mg/kg/injection, schedule: Q04DX003 (ip), vehicle: gum acacia
[12] = dose: 200.0 mg/kg/injection, schedule: Q04DX003 (ip), vehicle: gum acacia
[13] = dose: 400.0 mg/kg/injection, schedule: Q01DX009 (ip), vehicle: saline with Tween-80
[14] = dose: 100.0 mg/kg/injection, schedule: Q04DX003 (ip), vehicle: saline with Tween-80
[15] = dose: 200.0 mg/kg/injection, schedule: Q04DX003 (ip), vehicle: saline with Tween-80
[16] = dose: 400.0 mg/kg/injection, schedule: Q04DX003 (ip), vehicle: saline with Tween-80
[17] = dose: 100.0 mg/kg/injection, schedule: Q04DX002 (ip), vehicle: Klucel (hydroxypropylcellulose) (HPC)
[18] = dose: 200.0 mg/kg/injection, schedule: Q04DX002 (ip), vehicle: Klucel (hydroxypropylcellulose) (HPC)
[19] = dose: 400.0 mg/kg/injection, schedule: Q04DX002 (ip), vehicle: Klucel (hydroxypropylcellulose) (HPC)
[20] = dose: 100.0 mg/kg/injection, schedule: Q04DX003 (ip), vehicle: saline
[21] = dose: 200.0 mg/kg/injection, schedule: Q04DX003 (ip), vehicle: saline
[22] = dose: 400.0 mg/kg/injection, schedule: Q04DX003 (ip), vehicle: saline

Measured: T/C

Oc1ccc(Br)cc1C=Nc1cccc(C(F)(F)F)c1
inactive: [1] 102 % of control | [2] 100 % of control | [3] 96 % of control

O=C1CN(CCl)C(=O)CN1CCl
inactive: dose: 50.0 mg/kg/injection, schedule: Q01DX009 (ip), vehicle: water 100 % of control | dose: 100.0 mg/kg/injection, schedule: Q01DX009 (ip), vehicle: water 101 % of control | dose: 100.0 mg/kg/injection, schedule: Q04DX003 (ip), vehicle: water 113 % of control | dose: 200.0 mg/kg/injection, schedule: Q04DX003 (ip), vehicle: water 110 % of control | dose: 400.0 mg/kg/injection, schedule: Q04DX003 (ip), vehicle: water 113 % of control

Nc1[nH]c(=S)[nH]c(=O)c1NC=O
inactive: dose: 16.0 mg/kg/injection, schedule: Q01DX Z (ip), vehicle: methylcellulose (MC) 103 % of control | dose: 31.0 mg/kg/injection, schedule: Q01DX Z (ip), vehicle: methylcellulose (MC) 106 % of control | dose: 62.0 mg/kg/injection, schedule: Q01DX Z (ip), vehicle: methylcellulose (MC) 108 % of control | dose: 125.0 mg/kg/injection, schedule: Q01DX Z (ip), vehicle: methylcellulose (MC) 96 % of control and 97 % of control | dose: 250.0 mg/kg/injection, schedule: Q01DX Z (ip), vehicle: methylcellulose (MC) 100 % of control | dose: 500.0 mg/kg/injection, schedule: Q01DX Z (ip), vehicle: methylcellulose (MC) 112 % of control

O=C(Cl)C1CCCCC1
inactive: dose: 6.25 mg/kg/injection, schedule: Q01DX015 (ip), vehicle: saline 93 % of control | dose: 12.5 mg/kg/injection, schedule: Q01DX015 (ip), vehicle: saline 89 % of control | dose: 25.0 mg/kg/injection, schedule: Q01DX015 (ip), vehicle: saline 93 % of control and 96 % of control | dose: 50.0 mg/kg/injection, schedule: Q01DX015 (ip), vehicle: saline 90 % of control

COc1ccc(/C=N/N2CCN(/N=C/c3ccc(OC)cc3)CC2)cc1
inactive: [4] 88 % of control | [5] 88 % of control | [6] 93 % of control

Cc1cccc(C)c1N(COC(C)C)C(=O)CCl
inactive: [7] 94 % of control | [8] 95 % of control

CC(C)(C)C(O)c1ccccc1 (stereo not drawn)
inactive: [9] 97 % of control | [10] 93 % of control | [1] 93 % of control and 92 % of control | [2] 93 % of control and 95 % of control | [3] 95 % of control

N#CC1c2cc(OC(=O)c3ccccc3)ccc2C=CN1C(=O)c1ccccc1 (stereo not drawn)
inactive: [11] 89 % of control | [12] 89 % of control

O=[N+]([O-])/C=C/c1ccccc1F
inactive: dose: 18.75 mg/kg/injection, schedule: Q04DX003 (ip), vehicle: Klucel (hydroxypropylcellulose) (HPC) 95 % of control | dose: 37.5 mg/kg/injection, schedule: Q04DX003 (ip), vehicle: Klucel (hydroxypropylcellulose) (HPC) 98 % of control | dose: 75.0 mg/kg/injection, schedule: Q04DX003 (ip), vehicle: Klucel (hydroxypropylcellulose) (HPC) 91 % of control

CSc1ccc(NC(=O)NCCc2ccccc2)cc1
inactive: [7] 94 % of control | dose: 100.0 mg/kg/injection, schedule: Q04DX003 (ip), vehicle: Klucel (hydroxypropylcellulose) (HPC) 96 % of control | [8] 102 % of control | dose: 200.0 mg/kg/injection, schedule: Q04DX003 (ip), vehicle: Klucel (hydroxypropylcellulose) (HPC) 96 % of control | [13] 107 % of control | dose: 400.0 mg/kg/injection, schedule: Q04DX003 (ip), vehicle: Klucel (hydroxypropylcellulose) (HPC) 104 % of control

[Br][Ge]([c]1ccccc1)([c]1ccccc1)[c]1ccccc1
inactive: [9] 104 % of control | [10] 96 % of control | [1] 104 % of control | [14] 94 % of control | [2] 93 % of control | [15] 94 % of control | [16] 90 % of control

O=S(=O)(CBr)CC(Cl)c1ccccc1 (stereo not drawn)
inactive: [17] 100 % of control | [18] 106 % of control | [19] 100 % of control

COc1ccc(C)cc1NC(=O)OCCSc1ccc(Cl)cc1
inactive: dose: 50.0 mg/kg/injection, schedule: Q01DX009 (ip), vehicle: gum acacia 97 % of control and 102 % of control | dose: 100.0 mg/kg/injection, schedule: Q01DX001 (ip), vehicle: gum acacia 95 % of control and 97 % of control | dose: 100.0 mg/kg/injection, schedule: Q04DX002 (ip), vehicle: gum acacia 97 % of control and 91 % of control | [11] 96 % of control and 97 % of control | dose: 200.0 mg/kg/injection, schedule: Q01DX001 (ip), vehicle: gum acacia 95 % of control and 100 % of control | dose: 200.0 mg/kg/injection, schedule: Q04DX002 (ip), vehicle: gum acacia 93 % of control | [12] 92 % of control and 96 % of control | dose: 400.0 mg/kg/injection, schedule: Q01DX001 (ip), vehicle: gum acacia 94 % of control and 97 % of control | dose: 400.0 mg/kg/injection, schedule: Q01DX009 (ip), vehicle: gum acacia 88 % of control and 90 % of control | dose: 400.0 mg/kg/injection, schedule: Q04DX002 (ip), vehicle: gum acacia 98 % of control and 90 % of control | dose: 400.0 mg/kg/injection, schedule: Q04DX003 (ip), vehicle: gum acacia 100 % of control and 101 % of control

CSc1ccc(OC(=O)Nc2ccc(C)c([N+](=O)[O-])c2)cc1C
inactive: [7] 89 % of control | [8] 89 % of control

COCCc1cccc(C)n1
inactive: dose: 100.0 mg/kg/injection, schedule: Q01DX009 (ip), vehicle: saline 93 % of control | [20] 93 % of control | dose: 200.0 mg/kg/injection, schedule: Q01DX009 (ip), vehicle: saline 92 % of control | [21] 94 % of control | [22] 91 % of control

Cc1c(Cl)cccc1NC(=O)C1CC(Br)C(Br)CC1C(=O)O (stereo not drawn)
inactive: [17] 95 % of control | [18] 103 % of control | [19] 95 % of control

O=S1(=O)CC(Cl)(Br)C1 (tested in a mixture with another compound)
inactive: [17] 94 % of control | [18] 97 % of control | [19] 89 % of control

O=C(N/C=C/NC(=O)OC(=O)C(Cl)(Cl)Cl)OC(=O)C(Cl)(Cl)Cl
inactive: [20] 92 % of control | [21] 88 % of control | [22] 93 % of control

Cc1ccc2c(c1)CC=CO2
inactive: dose: 50.0 mg/kg/injection, schedule: Q01DX009 (ip), vehicle: carboxymethylcellulose (CMC) 91 % of control | [4] 96 % of control | dose: 100.0 mg/kg/injection, schedule: Q01DX009 (ip), vehicle: carboxymethylcellulose (CMC) 94 % of control and 97 % of control | [7] 88 % of control | [14] 101 % of control | [5] 96 % of control | dose: 200.0 mg/kg/injection, schedule: Q01DX009 (ip), vehicle: carboxymethylcellulose (CMC) 94 % of control and 95 % of control | [15] 97 % of control | [6] 100 % of control | dose: 400.0 mg/kg/injection, schedule: Q01DX009 (ip), vehicle: carboxymethylcellulose (CMC) 96 % of control | [13] 92 % of control | [16] 98 % of control
